Data from patent publication US20210052703A1 (SHANGHAI BENEMAE PHARMACEUTICAL CORPORATION, priority 2018, published 2021).

Tested on: patients with type 2 diabetes
Assay: trial 5C: Beinaglutide with metformin, multicenter, type 2 diabetes
Type: in vivo, human
Details: control group (metformin alone group); 12 weeks of treatment
Excerpt: Note: Covariance analysis was used for comparison between groups. The dependent variable was the change in body weight relative to baseline, and the covariate was baseline. Body weight change from baseline=post-treatment−baseline. Data from 5C test data.

Structure (SMILES): CN(C)C(=N)N=C(N)N [metformin, reference compound]
- proportion of subjects with weight loss from the baseline ≥3%: 27.27%
- proportion of subjects with weight loss ≥5%: 10.39%
